Assay results from patent publication US12077503B2, “Substituted cyclic amides and their use as herbicides” (FMC CORPORATION, priority 2015, dated 2024).

Tests used:
Type in all cases: in vivo
Kochia (Kochia scoparia) [1] = assay: Test A preemergence; conditions: Bassia scoparia, pre-emergence, 240 h, 0 to 100 scale where 0 is no effect and 100 is complete control, read-out: Kochia plant response rating
Outline: (§1)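 Compounds were formulated in a non-phytotoxic solvent mixture with surfactant and applied as a preemergence directed soil spray after seeding, or sprayed postemergence over plants 2 to 10 cm tall at the one- to two-leaf stage. Evaluation after about 10 d compared treated with untreated controls, using a scale from 0 (no effect) to 100 (complete control).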

[2] = tested on: barnyardgrass (Echinochloa crus-galli); assay: Test A preemergence; conditions: Echinochloa crus-galli, pre-emergence, 240 h, 0 to 100 scale where 0 is no effect and 100 is complete control, read-out: Barnyardgrass plant response rating
Outline: as §1

[3] = tested on: giant foxtail (Setaria faberii); assay: Test A preemergence; conditions: Setaria faberi, pre-emergence, 240 h, 0 to 100 scale where 0 is no effect and 100 is complete control, read-out: Foxtail, Giant plant response rating
Outline: as §1

[4] = tested on: pigweed (Amaranthus retroflexus); assay: Test A preemergence; conditions: Amaranthus retroflexus, pre-emergence, 240 h, 0 to 100 scale where 0 is no effect and 100 is complete control, read-out: Pigweed plant response rating
[5] = tested on: ragweed (common ragweed, Ambrosia elatior); assay: Test A preemergence; conditions: Ambrosia artemisiifolia, pre-emergence, 240 h, 0 to 100 scale where 0 is no effect and 100 is complete control, read-out: Ragweed plant response rating
Outline: as §1

[6] = tested on: ryegrass, Italian (Italian ryegrass, Lolium multiflorum); assay: Test A preemergence; conditions: Lolium multiflorum, pre-emergence, 240 h, 0 to 100 scale where 0 is no effect and 100 is complete control, read-out: Ryegrass, Italian plant response rating
Outline: as §1

[7] = tested on: Galium (catchweed bedstraw, Galium aparine); assay: Test A postemergence; conditions: Galium, post-emergence, 240 h
Outline: as §1

Kochia (Kochia scoparia) [8] = assay: Test A postemergence; conditions: Bassia scoparia, post-emergence, 240 h
Outline: as §1

[9] = tested on: barnyardgrass (Echinochloa crus-galli); assay: Test A postemergence; conditions: Echinochloa crus-galli, post-emergence, 240 h
Outline: as §1

[10] = tested on: blackgrass (Alopecurus myosuroides); assay: Test A postemergence; conditions: Alopecurus myosuroides, post-emergence, 240 h
Outline: as §1

corn (Zea mays) = assay: Test A postemergence; conditions: Zea mays, post-emergence, 240 h
Outline: as §1

[11] = tested on: giant foxtail (Setaria faberii); assay: Test A postemergence; conditions: Setaria faberi, post-emergence, 240 h
Outline: as §1

[12] = tested on: pigweed (Amaranthus retroflexus); assay: Test A postemergence; conditions: Amaranthus retroflexus, post-emergence, 240 h
Outline: as §1

[13] = tested on: ragweed (common ragweed, Ambrosia elatior); assay: Test A postemergence; conditions: Ambrosia artemisiifolia, post-emergence, 240 h
Outline: as §1

[14] = tested on: ryegrass, Italian (Italian ryegrass, Lolium multiflorum); assay: Test A postemergence; conditions: Lolium multiflorum, post-emergence, 240 h
Outline: as §1

[15] = tested on: wheat (Triticum aestivum); assay: Test A postemergence; conditions: Triticum aestivum, post-emergence, 240 h
Outline: as §1

[16] = tested on: barnyardgrass (Echinochloa crus-galli); assay: Test B flooded paddy test; conditions: Echinochloa crus-galli, 250 g ai/ha, Flood; 0 to 100 scale where 0 is no effect and 100 is complete control; read-out: Barnyardgrass plant response rating
Outline: (§2)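 2-leaf plants; pots flooded 3 cm over soil; cpd added to paddy water; depth held; greenhouse 13–15 d; visual rating vs controls, 0 = no effect, 100 = complete control.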

[17] = tested on: ducksalad (Heteranthera limosa); assay: Test B flooded paddy test; conditions: Heteranthera limosa, 250 g ai/ha, Flood; 0 to 100 scale where 0 is no effect and 100 is complete control; read-out: Ducksalad plant response rating
Outline: as §2

rice (Oryra sativa) = assay: Test B flooded paddy test; conditions: Oryza sativa, 250 g ai/ha, Flood; 0 to 100 scale where 0 is no effect and 100 is complete control; read-out: Rice plant response rating
Outline: as §2

[18] = tested on: sedge, umbrella (small-flower umbrella sedge, Cyperus difformis); assay: Test B flooded paddy test; conditions: Cyperus difformis, 250 g ai/ha, Flood; 0 to 100 scale where 0 is no effect and 100 is complete control; read-out: Sedge, Umbrella plant response rating
Outline: as §2

[19] = 125 g ai/ha, preemergence, approx. 10 d

CSc1ccccc1NC(=O)[C@H]1C(=O)N(C)C[C@@H]1c1ccc(F)c(Oc2ccccc2)c1 [Compound 1142]
pest or weed control at 31 g/ha (Kochia (Kochia scoparia) [1]; 31 g ai/ha, Preemergence): 0% | pest or weed control at 125 g/ha (Kochia (Kochia scoparia) [1]; [19]): 0% | pest or weed control at 31 g/ha ([2]; 31 g ai/ha, Preemergence): 0% | pest or weed control at 125 g/ha [2, 19]: 30% | pest or weed control at 31 g/ha ([3]; 31 g ai/ha, Preemergence): 30% | pest or weed control at 125 g/ha [3, 19]: 90% | pest or weed control at 31 g/ha ([4]; 31 g ai/ha, Preemergence): 0% | pest or weed control at 125 g/ha [4, 19]: 60% | pest or weed control at 31 g/ha ([5]; 31 g ai/ha, Preemergence): 0% | pest or weed control at 125 g/ha [5, 19]: 0% | pest or weed control at 31 g/ha ([6]; 31 g ai/ha, Preemergence): 0% | pest or weed control at 125 g/ha [6, 19]: 0% | pest or weed control at 125 g/ha ([7]; 125 g ai/ha, postemergence, visual injury on 0 to 100 scale (0 no effect, 100 complete control), approx. 10 d, read-out: Galium plant response rating): 30% | pest or weed control at 31 g/ha ([7]; Postemergence, 31 g ai/ha, visual injury after approx. 10 d, 0 to 100 scale, 0 no effect, 100 complete control, read-out: Plant response rating, Galium): 0% | pest or weed control at 125 g/ha (Kochia (Kochia scoparia) [8]; 125 g ai/ha, postemergence, visual injury on 0 to 100 scale (0 no effect, 100 complete control), approx. 10 d, read-out: Kochia plant response rating): 0% | pest or weed control at 31 g/ha (Kochia (Kochia scoparia) [8]; Postemergence, 31 g ai/ha, visual injury after approx. 10 d, 0 to 100 scale, 0 no effect, 100 complete control, read-out: Plant response rating, Kochia): 0% | pest or weed control at 125 g/ha ([9]; 125 g ai/ha, postemergence, visual injury on 0 to 100 scale (0 no effect, 100 complete control), approx. 10 d, read-out: Barnyardgrass plant response rating): 30% | pest or weed control at 31 g/ha ([9]; Postemergence, 31 g ai/ha, visual injury after approx. 10 d, 0 to 100 scale, 0 no effect, 100 complete control, read-out: Plant response rating, Barnyardgrass): 0% | pest or weed control at 125 g/ha ([10]; 125 g ai/ha, postemergence, visual injury on 0 to 100 scale (0 no effect, 100 complete control), approx. 10 d, read-out: Blackgrass plant response rating): 0% | pest or weed control at 31 g/ha ([10]; Postemergence, 31 g ai/ha, visual injury after approx. 10 d, 0 to 100 scale, 0 no effect, 100 complete control, read-out: Plant response rating, Blackgrass): 0% | plant injury at 125 g/ha (corn (Zea mays); 125 g ai/ha, postemergence, visual injury on 0 to 100 scale (0 no effect, 100 complete control), approx. 10 d, read-out: Corn plant response rating): 0% | Corn plant response rating (crop injury, 0 = no effect, 100 = complete kill) at 31 g/ha (corn (Zea mays); Postemergence, 31 g ai/ha, visual injury after approx. 10 d, 0 to 100 scale, 0 no effect, 100 complete control): 0% | pest or weed control at 125 g/ha ([11]; 125 g ai/ha, postemergence, visual injury on 0 to 100 scale (0 no effect, 100 complete control), approx. 10 d, read-out: Foxtail, Giant plant response rating): 60% | pest or weed control at 31 g/ha ([11]; Postemergence, 31 g ai/ha, visual injury after approx. 10 d, 0 to 100 scale, 0 no effect, 100 complete control, read-out: Plant response rating, Foxtail, Giant): 0% | pest or weed control at 125 g/ha ([12]; 125 g ai/ha, postemergence, visual injury vs untreated controls after approx. 10 d, 0 = no effect, 100 = complete control, read-out: Pigweed plant response rating (0 to 100 scale)): 30% | pest or weed control at 31 g/ha ([12]; Postemergence, 31 g ai/ha, visual injury after approx. 10 d, 0 to 100 scale, 0 no effect, 100 complete control, read-out: Plant response rating, Pigweed): 0% | pest or weed control at 125 g/ha ([13]; 125 g ai/ha, postemergence, visual injury vs untreated controls after approx. 10 d, 0 = no effect, 100 = complete control, read-out: Ragweed plant response rating (0 to 100 scale)): 0% | pest or weed control at 31 g/ha ([13]; Postemergence, 31 g ai/ha, visual injury after approx. 10 d, 0 to 100 scale, 0 no effect, 100 complete control, read-out: Plant response rating, Ragweed): 0% | pest or weed control at 125 g/ha ([14]; 125 g ai/ha, postemergence, visual injury vs untreated controls after approx. 10 d, 0 = no effect, 100 = complete control, read-out: Ryegrass, Italian plant response rating (0 to 100 scale)): 0% | pest or weed control at 31 g/ha ([14]; Postemergence, 31 g ai/ha, visual injury after approx. 10 d, 0 to 100 scale, 0 no effect, 100 complete control, read-out: Plant response rating, Ryegrass, Italian): 0% | plant injury at 125 g/ha ([15]; 125 g ai/ha, postemergence, visual injury vs untreated controls after approx. 10 d, 0 = no effect, 100 = complete control, read-out: Wheat plant response rating (0 to 100 scale)): 0% | plant injury at 31 g/ha ([15]; Postemergence, 31 g ai/ha, visual injury after approx. 10 d, 0 to 100 scale, 0 no effect, 100 complete control, read-out: Plant response rating, Wheat): 0% | pest or weed control at 250 g/ha [16]: 0% | pest or weed control at 250 g/ha [17]: 0% | pest or weed control at 250 g/ha (rice (Oryra sativa)): 0% | pest or weed control at 250 g/ha [18]: 0%
